Data: US20150232420A1, “TRANSGLUTAMINASE TG2 INHIBITORS, PHARMACEUTICAL COMPOSITIONS, AND METHODS OF USE THEREOF” (priority 2012, published 2015)

These molecules were tested against T1, human TG2 (Homo sapiens, UniProt P21980) (assay: fluorescent screening assay for human TG2). Conditions: Table 7; 20 nM TG2, 37° C.; read-out: IC50.
T1 sequence (P21980 1-687): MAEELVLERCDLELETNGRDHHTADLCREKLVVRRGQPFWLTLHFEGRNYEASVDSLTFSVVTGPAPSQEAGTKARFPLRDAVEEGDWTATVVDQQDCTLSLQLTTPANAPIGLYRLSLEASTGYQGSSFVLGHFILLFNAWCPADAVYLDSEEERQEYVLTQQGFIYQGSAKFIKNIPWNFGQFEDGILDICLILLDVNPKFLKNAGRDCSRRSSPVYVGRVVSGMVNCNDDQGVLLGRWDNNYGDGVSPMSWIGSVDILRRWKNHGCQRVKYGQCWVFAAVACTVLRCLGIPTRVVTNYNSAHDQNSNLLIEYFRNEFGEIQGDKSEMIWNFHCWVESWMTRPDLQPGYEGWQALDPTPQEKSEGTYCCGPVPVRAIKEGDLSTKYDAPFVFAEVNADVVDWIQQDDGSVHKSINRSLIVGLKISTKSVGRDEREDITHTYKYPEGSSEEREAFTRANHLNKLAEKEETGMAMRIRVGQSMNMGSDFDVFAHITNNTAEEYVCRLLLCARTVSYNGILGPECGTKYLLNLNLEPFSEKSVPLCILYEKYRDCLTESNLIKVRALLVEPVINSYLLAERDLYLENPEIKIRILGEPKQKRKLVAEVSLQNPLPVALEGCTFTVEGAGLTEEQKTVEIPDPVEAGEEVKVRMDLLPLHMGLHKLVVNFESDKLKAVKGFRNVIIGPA
Assay type: biochemical
Description: The fluorescent screening assay for human TG2 was performed as described herein: Assay conditions were 20 nM TG2, 8 μM N,N-dimethylated Casein (NMC) and 16 μM K×D (used for all transglutaminase assays) in 25 mM Hepes, pH 7.4, 250 mM NaCl, 2 mM MgCl2, 0.5 mM CaCl2, 0.2 mM DTT, 0.05% Pluronic F-127 at 37° C. A time point was taken with a microplate reader (Safire or Ultra, Tecan; ex: 350 nm, em: 535 nm) every 3 minutes for up to 2 hours and the initial linear reaction progress was used to determine the reaction velocity as a measure for enzyme activity. Assay conditions were identical for human TG6 and similar for human TG1 and mouse TG2 apart from enzyme concentration (mTG2 at 5 nM; TG1 at 10 nM) and CaCl2 concentration (0.2 mM for mTG2; 0.05 mM for TG1). Factor XIIIa was activated using 0.1 μg/μl thrombin (Sigma) in 35 mM Tris pH 8.0 for 20 min at 30° C. and the transamidation reaction was performed with 20 nM Factor XIIIa in 50 mM Tris pH 8.0, 1.25 mM CaCl2, 0.05% Pluronic, 0.2 mM DTT. TG3 was activated with 0.02 μg/μl thrombin under the same conditions as Factor XIIIa and assay conditions were 10 nM TG3 in 50 mM Hepes, pH 8, 20 mM CaCl2, 0.2 mM DTT, 0.05% Pluronic F-127.
Work on `C=CC(=O)NCCC1C[C@@H](C(=O)OC)N(C(=O)OC(C)(C)C)C1` (stereo partly drawn) [1-tert-butyl 2-methyl (2S)-4-[2-(prop-2-enamido)ethyl]pyrrolidine-1,2-dicarboxylate] yielded an IC50 of 1000 to 100000 nM. `C=CC(=O)N1CCC(CC(NC(=O)OC(C)(C)C)C(=O)O)CC1` (centres unmarked) [2-{[(tert-butoxy)carbonyl]amino}-3-[1-(prop-2-enoyl)piperidin-4-yl]propanoic acid] showed an IC50 of 1000 to 100000 nM. With `C=CC(=O)NCCCC[C@@H](NC(=O)OCc1ccccc1)C(=O)O` [(2R)-2-{[(benzyloxy)carbonyl]amino}-6-(prop-2-enamido)hexanoic acid] the IC50 was 1000 to 100000 nM. In the case of `C=CC(=O)NCCCC[C@H](NC(=O)OCc1c(F)cccc1F)C(=O)O` [(2S)-2-({[(2,6-difluorophenyl)methoxy]carbonyl}amino)-6-(prop-2-enamido)hexanoic acid], the IC50 is reported as 1000 to 100000 nM. `C=CC(=O)NCCCC[C@H](NC(=O)OCc1ccc(F)cc1Cl)C(=O)O` [(2S)-2-({[(2-chloro-4-fluorophenyl)methoxy]carbonyl}amino)-6-(prop-2-enamido)hexanoic acid] was tested, and the IC50 was 1000 to 100000 nM. `C=CC(=O)NCCCC[C@H](NC(=O)OCc1ccccc1Cl)C(=O)O` [(2S)-2-({[(2-chlorophenyl)methoxy]carbonyl}amino)-6-(prop-2-enamido)hexanoic acid] was tested, and the IC50 was 1000 to 100000 nM. Work on `C=CC(=O)NCCCC[C@H](NC(=O)OCc1ccc(CCCC)cc1)C(=O)O` [(2S)-2-({[(4-butylphenyl)methoxy]carbonyl}amino)-6-(prop-2-enamido)hexanoic acid] yielded an IC50 of 1000 to 100000 nM. Work on `C=CC(=O)NCCCC[C@H](NC(=O)OCc1ccc(F)cc1)C(=O)O` [(2S)-2-({[(4-fluorophenyl)methoxy]carbonyl}amino)-6-(prop-2-enamido)hexanoic acid] yielded an IC50 of 1000 to 100000 nM. Molecule `C=CC(=O)NCCCC[C@H](NC(=O)OCc1ccc(C)cc1)C(=O)O` [(2S)-2-({[(4-methylphenyl)methoxy]carbonyl}amino)-6-(prop-2-enamido)hexanoic acid] has an IC50 of 1000 to 100000 nM. `C=CC(=O)NCCCC[C@H](NC(=O)OCc1ccc([N+](=O)[O-])cc1)C(=O)O` [(2S)-2-({[(4-nitrophenyl)methoxy]carbonyl}amino)-6-(prop-2-enamido)hexanoic acid] gave an IC50 of 1000 to 100000 nM. In the case of `C=CC(=O)NCCCC[C@H](NC(=O)OCc1ccc(C(C)(C)C)cc1)C(=O)O` [(2S)-2-({[(4-tert-butylphenyl)methoxy]carbonyl}amino)-6-(prop-2-enamido)hexanoic acid], the IC50 is reported as 1000 to 100000 nM. `C=CC(=O)NCCCC[C@H](NC(=O)OC)C(=O)O` [(2S)-2-[(methoxycarbonyl)amino]-6-(prop-2-enamido)hexanoic acid] gave an IC50 of 1000 to 100000 nM. `C=CC(=O)NCCCC[C@H](NC(=O)OCC1c2ccccc2-c2ccccc21)C(=O)O` [(2S)-2-{[(9H-fluoren-9-ylmethoxy)carbonyl]amino}-6-(prop-2-enamido)hexanoic acid] was tested, and the IC50 was 1000 to 100000 nM. For `C=CC(=O)Nc1ccc(C[C@H](NC(=O)OCc2ccccc2)C(=O)O)cc1` [(2S)-2-{[(benzyloxy)carbonyl]amino}-3-[4-(prop-2-enamido)phenyl]propanoic acid], the IC50 was 1000 to 100000 nM. Molecule `C=CC(=O)NCCCC[C@H](NC(=O)OCc1ccccc1)C(=O)O` [(2S)-2-{[(benzyloxy)carbonyl]amino}-6-(prop-2-enamido)hexanoic acid] has an IC50 of 1000 to 100000 nM. In the case of `C=CC(=O)NCCCC[C@H](NC(=O)OCc1cccc2ccccc12)C(=O)O` [(2S)-2-{[(naphthalen-1-ylmethoxy)carbonyl]amino}-6-(prop-2-enamido)hexanoic acid], the IC50 is reported as 1000 to 100000 nM. With `C=CC(=O)NCCCC[C@H](NC(=O)OCc1ccc2ccccc2c1)C(=O)O` [(2S)-2-{[(naphthalen-2-ylmethoxy)carbonyl]amino}-6-(prop-2-enamido)hexanoic acid] the IC50 was 1000 to 100000 nM. `C=CC(=O)NCCCC[C@H](NC(=O)OCc1ccccc1C(F)(F)F)C(=O)O` [(2S)-6-(prop-2-enamido)-2-[({[2-(trifluoromethyl)phenyl]methoxy}carbonyl)amino]hexanoic acid] showed an IC50 of 1000 to 100000 nM. `C=CC(=O)NCCCC[C@H](NC(=O)OCc1cccc(C(F)(F)F)c1)C(=O)O` [(2S)-6-(prop-2-enamido)-2-[({[3-(trifluoromethyl)phenyl]methoxy}carbonyl)amino]hexanoic acid] gave an IC50 of 1000 to 100000 nM. For `C=CC(=O)NCCCC[C@H](NC(=O)OCc1ccc(C(F)(F)F)cc1)C(=O)O` [(2S)-6-(prop-2-enamido)-2-[({[4-(trifluoromethyl)phenyl]methoxy}carbonyl)amino]hexanoic acid], the IC50 was 1000 to 100000 nM. With `C=CC(=O)NCCCC[C@H](NC(C)=O)C(=O)N1CCN(c2cccc(C)n2)CC1` [N-[(5S)-5-acetamido-6-[4-(6-methylpyridin-2-yl)piperazin-1-yl]-6-oxohexyl]prop-2-enamide] the IC50 was 100 to 1000 nM. `C=CC(=O)NCCCC[C@H](NC(=O)c1ccc2ccccc2c1)C(=O)N1CCN(c2cccc(C)n2)CC1` [N-[(5S)-6-[4-(6-methylpyridin-2-yl)piperazin-1-yl]-5-(naphthalen-2-ylformamido)-6-oxohexyl]prop-2-enamide] was tested, and the IC50 was 1000 to 100000 nM. `C=CC(=O)NCCCC[C@H](NC(=O)c1ccccc1)C(=O)N1CCN(c2cccc(C)n2)CC1` [N-[(5S)-6-[4-(6-methylpyridin-2-yl)piperazin-1-yl]-6-oxo-5-(phenylformamido)hexyl]prop-2-enamide] was tested, and the IC50 was 100 to 1000 nM. `C=CC(=O)NCCCC[C@H](NC(=O)OCc1ccccc1)C(=O)N(CC)CC` [benzyl N-[(1S)-1-(diethylcarbamoyl)-5-(prop-2-enamido)pentyl]carbamate] gave an IC50 of 1000 to 100000 nM. `C=CC(=O)NCCCC[C@H](NC(=O)OCc1ccccc1)C(=O)N(C)C` [benzyl N-[(1S)-1-(dimethylcarbamoyl)-5-(prop-2-enamido)pentyl]carbamate] was tested, and the IC50 was 1000 to 100000 nM. `C=CC(=O)NCCCC[C@H](NC(=O)OCc1ccccc1)C(=O)NC1C2CC3CC(C2)CC1C3` (stereo partly drawn) [benzyl N-[(1S)-1-[(adamantan-2-yl)carbamoyl]-5-(prop-2-enamido)pentyl]carbamate] was tested, and the IC50 was 1000 to 100000 nM. `C=CC(=O)NCCCC[C@H](NC(=O)OCc1ccccc1)C(=O)N1Cc2ccccc2C1` [benzyl N-[(2S)-1-(2,3-dihydro-1H-isoindol-2-yl)-1-oxo-6-(prop-2-enamido)hexan-2-yl]carbamate] showed an IC50 of 100 to 1000 nM. `C=CC(=O)NCCCC[C@H](NC(=O)OCc1ccccc1)C(=O)N1CCC(F)(F)CC1` [benzyl N-[(2S)-1-(4,4-difluoropiperidin-1-yl)-1-oxo-6-(prop-2-enamido)hexan-2-yl]carbamate] was tested, and the IC50 was 100 to 1000 nM. Work on `C=CC(=O)NCCCC[C@H](NC(=O)OCc1ccccc1)C(=O)N1CCN(C(=O)C2CC2)CC1` [benzyl N-[(2S)-1-(4-cyclopropanecarbonylpiperazin-1-yl)-1-oxo-6-(prop-2-enamido)hexan-2-yl]carbamate] yielded an IC50 of 100 to 1000 nM. `C=CC(=O)NCCCC[C@H](NC(=O)OCc1ccccc1)C(=O)N1CCN(C)CC1` [benzyl N-[(2S)-1-(4-methylpiperazin-1-yl)-1-oxo-6-(prop-2-enamido)hexan-2-yl]carbamate] was tested, and the IC50 was 100 to 1000 nM. With `C=CC(=O)NCCCC[C@H](NC(=O)OCc1ccccc1)C(=O)N1CCCCCC1` [benzyl N-[(2S)-1-(azepan-1-yl)-1-oxo-6-(prop-2-enamido)hexan-2-yl]carbamate] the IC50 was 100 to 1000 nM. `C=CC(=O)NCCCC[C@H](NC(=O)OCc1ccccc1)C(=O)N1CCC1` [benzyl N-[(2S)-1-(azetidin-1-yl)-1-oxo-6-(prop-2-enamido)hexan-2-yl]carbamate] was tested, and the IC50 was 1000 to 100000 nM. `C=CC(=O)NCCCC[C@H](NC(=O)OCc1ccccc1)C(=O)N1CCOCC1` [benzyl N-[(2S)-1-(morpholin-4-yl)-1-oxo-6-(prop-2-enamido)hexan-2-yl]carbamate] was tested, and the IC50 was 100 to 1000 nM. `C=CC(=O)NCCCC[C@H](NC(=O)OCc1ccccc1)C(=O)N1CCN(c2ncccc2C)CC1` [benzyl N-[(2S)-1-[4-(3-methylpyridin-2-yl)piperazin-1-yl]-1-oxo-6-(prop-2-enamido)hexan-2-yl]carbamate] gave an IC50 of 100 to 1000 nM. `C=CC(=O)NCCCC[C@H](NC(=O)OCc1ccccc1)C(=O)N1CCN(c2cc(Cl)ccc2OC)CC1` [benzyl N-[(2S)-1-[4-(5-chloro-2-methoxyphenyl)piperazin-1-yl]-1-oxo-6-(prop-2-enamido)hexan-2-yl]carbamate] was tested, and the IC50 was < 100 nM.
